Test results published in US12440493B2, “Combination therapy for treating cancer comprising substituted piperazines” (Eli Lilly and Company, priority 2020, dated 2025).
Several values for one entry are separate records, joined by “and”; a condition that tells them apart may be missing. Equal values may be shown once.

Key:
[1] = system: IDH1(R132H) primary human AML cells; assay: Bone marrow AML clearance (flow cytometry), human AML PDx models in NSG mice; format: in vivo; conditions: for Bone Marrow AML Clearance: % hCD33 + hCD45+ (% of white cells) / Bone Marrow AML Clearance: % hCD45+ (% of white cells): QD, PO, each line one animal
Procedure: (§1) Compounds and Formulation. For in vivo studies, each test article is prepared at an appropriate concentration with vehicle. […] Compound A is prepared fresh at the appropriate concentrations with vehicle every 7 days and stored at 4° C. between doses. […] Cytarabine is prepared fresh weekly by dilution with sterile saline from stock solution of Cytarabine (injection 20 mg/mL, (Pfizer injectables')). Azacitidine (Sigma, Lot #MKBR7212) is formulated in sterile water and is prepared fresh daily immediately before dosing. In vivo human AML PDx models. […] Two models are used in the studies: […] As needed, splenocytes from tumor-bearing mice are used to propagate and expand the models, as described. Each test article is prepared as described above at an appropriate concentration with vehicle to give animals the doses tested in this study at a dosing volume of 10 μL/gram body weight. Mice receiving Compound A (PO, QD) are treated at the indicated doses for the duration of the study. The combination agents are dosed as follows: […] Treated mice are assessed in comparison to vehicle treated and naïve (non-tumor bearing) control mice. Body weight is recorded twice per week. […] AML PDx model propagation. […] Spleens are processed and splenocytes isolated as described below. Two hundred μL per subject of the splenocyte prep is injected IV (intravenous, tail vein) into recipient NSG mice. […] Once engraftment is confirmed, the mice are monitored biweekly until ready to be put on study. […] Submandibular blood is collected. Spleen/Splenocyte Processing and Prep. After excision, a spleen is weighed, and […] is placed in a standard sterile 15 mL polypropylene conical tube containing PBS, and placed on ice. […] The spleen is placed in ice cold sterile PBS in a 15 mL collection tube. The spleen is removed from the collection tube and placed in a 100 micron 50 mL conical tube cell strainer (BD Falcon #352360). The spleen is processed by gentle rubbing of the spleen tissue against the surface of the cell strainer with the end of a 5 mL syringe plunger in a circular motion. The surface of the strainer is rinsed with 10 mL room temperature sterile DPBS (HyClone SH30028) 3 times during the process. […] The cell pellet is collected by centrifugation (300×g) and washed three times with 30 mL sterile DPBS. The cells are counted and resuspended in DPBS at the desired implant concentration. Bone Marrow Collection. […] Flow cytometry analysis of human white cells. Submandibular blood samples from in vivo studies are collected. Fluor-conjugated antibody stains are added according to the manufacturer's instructions (anti-human CD33-PE (clone WM53, BD Cat #555450), anti-human CD14-APC (clone MφpP9, BD Cat #340436), anti-human CD15-V450 (clone HI98, BD Cat #561584), anti-human CD117-BV421 (clone YB5.B8, BD Cat #562434), anti-human […]7 (clone ICRF44, BD Cat #557754), anti-human […]7 (clone HI30, BD Cat #557748), and anti-human CD3-FITC (clone SK7, BD Cat #340542)). The samples are incubated for 30 minutes at room temperature, protected from light. After the incubation, 1.5 mL 1×BD Lyse/Fix (37° C., (BD #558049)) is added to each sample and incubated for 12 minutes at room temperature. The tubes are centrifuged at 300×g for 7 minutes. BD Lyse/Fix solution is aspirated and the cell pellet washed with stain/wash buffer 3 times (1 wash step consisted of: pellet resuspended in 3 mL stain/wash buffer, centrifuged at 300×g, aspirated wash). Fixed cells are then resuspended in 300 to 400 μL stain/wash buffer. Samples are analyzed on a Becton Dickinson FACSVerse Flow cytometer (Cat #651155 Serial #Z6511550447) using standard flow cytometry principles and techniques. Samples are analyzed on the same day as they are stained and fixed. Population gating and data analysis of percent population are performed in the FACSuite software on the FACSVerse cytometer. Percent population values from the data analysis are plotted in Graphpad Prism or in JMP13. […]

[2] = system: IDH1(R132H) primary human AML cells; assay: AML cell differentiation in blood (flow cytometry, % hCD33+hCD11b+ of hCD45+ cells), human AML PDx models in NSG mice; format: in vivo; conditions: for AML cell differentiation (% hCD33 + hCD11b+ (of hCD45+ cells)): QD, PO
Procedure: as §1

2-HG production = assay: Plasma 2-HG inhibition (LC-MS metabolite analysis in plasma of AML PDx model); format: in vivo, human; conditions: for % plasma 2-HG (treatment group value): vehicle 100%
[3] = 3.3 mg/kg Compound A, QD, PO, Table 1D, each line one animal
[4] = 3.3 mg/kg Compound A, QD, PO, Table 2D, each line one animal
[5] = plasma, B: 1 mg/kg Compound A, QD, PO, one line per animal
[6] = plasma, C: 10 mg/kg Compound A, one line per animal

## C=CC(=O)N1CCN([C@@H](CC2CC2)c2ccc([C@H](C)Nc3ncc4c(n3)N(CC)C(=O)OC4)cc2)CC1 [Compound A, 7-[[(1S)-1-[4-[(1S)-2-cyclopropyl-1-(4-prop-2-enoylpiperazin-1-yl)ethyl]phenyl]ethyl]amino]-1-ethyl-4H-pyrimido[4,5-d][1,3]oxazin-2-one]
[1]; 1 mg/kg Compound A
  Bone Marrow AML Clearance: % hCD33 + hCD45+ (% of white cells): 87.74% and 92.23%
  Bone Marrow AML Clearance: % hCD45+ (% of white cells): 88.34% and 92.36%
[1]; 3.3 mg/kg Compound A, Table 1C
  Bone Marrow AML Clearance: % hCD33 + hCD45+ (% of white cells): 98.6% and 44.3% and 98.54% and 86.55%
  Bone Marrow AML Clearance: % hCD45+ (% of white cells): 98.36% and 43.99% and 98.15% and 86.21%
[1]; 3.3 mg/kg Compound A, Table 2C
  Bone Marrow AML Clearance: % hCD33 + hCD45+ (% of white cells): 72.73% and 84.3% and 99.41% and 91.97%
  Bone Marrow AML Clearance: % hCD45+ (% of white cells): 72.6% and 84.16% and 99.3% and 91.11%
[1]; 10 mg/kg Compound A
  Bone Marrow AML Clearance: % hCD33 + hCD45+ (% of white cells): 8.65% and 4.27% and 1.09% and 0.78% and 1.84%
  Bone Marrow AML Clearance: % hCD45+ (% of white cells): 8.66% and 4.28% and 1.11% and 0.78% and 1.85%
[1]; group B: 1 mg Compound A, vehicle 86%
  % human AML cells in bone marrow (of white cells; lower = more clearance): 90%
[1]; group B: Compound A (3.3 mg/kg), azacitidine study, vehicle 94%
  % human AML cells in bone marrow (of white cells; lower = more clearance): 87%
[1]; group B: Compound A (3.3 mg/kg), cytarabine study, vehicle 94%
  % human AML cells in bone marrow (of white cells; lower = more clearance): 78%
[1]; group C: 10 mg Compound A, vehicle 86%
  % human AML cells in bone marrow (of white cells; lower = more clearance): 2.3%
[2]; B: 1 mg/kg Compound A, treatment day −8 (before treatment), one animal
  AML cell differentiation (% hCD33 + hCD11b+ (of hCD45+ cells)): 19.01% and 16.75%
[2]; Treatment day 2, 3.3 mg/kg Compound A, Table 2B, each value one animal, 3.3 mg/kg
  AML cell differentiation (% hCD33 + hCD11b+ (of hCD45+ cells)): 14.12% and 16.05% and 13.27% and 10.34% and 11.59% and 13.32% and 14.01%
[2]; Treatment day 15, 3.3 mg/kg Compound A, Table 2B, each value one animal, 3.3 mg/kg
  AML cell differentiation (% hCD33 + hCD11b+ (of hCD45+ cells)): 33.42% and 27.78% and 36.01% and 28.02% and 28.21% and 29.24% and 33.82%
[2]; Treatment day 18, 3.3 mg/kg Compound A, each value one animal, 3.3 mg/kg
  AML cell differentiation (% hCD33 + hCD11b+ (of hCD45+ cells)): 23.96% and 27.78% and 22.27% and 22.38% and 22.41% and 29.38% and 24.62%
[2]; Treatment day 28, 3.3 mg/kg Compound A, Table 2B, each value one animal, 3.3 mg/kg
  AML cell differentiation (% hCD33 + hCD11b+ (of hCD45+ cells)): 35.79% and 36.46% and 33.59% and 39.91% and 37.16% and 40.47%
[2]; Treatment day 34, 3.3 mg/kg Compound A, each value one animal, 3.3 mg/kg
  AML cell differentiation (% hCD33 + hCD11b+ (of hCD45+ cells)): 30.68% and 27.59% and 29.94% and 25.81% and 29.79% and 34.39% and 29.26%
[2]; Treatment day 43, 3.3 mg/kg Compound A, Table 2B, each value one animal, 3.3 mg/kg
  AML cell differentiation (% hCD33 + hCD11b+ (of hCD45+ cells)): 37.51% and 35.22% and 33.33% and 36.61% and 41.32% and 33.68% and 39.34%
[2]; Treatment day 47, 3.3 mg/kg Compound A, each value one animal, 3.3 mg/kg
  AML cell differentiation (% hCD33 + hCD11b+ (of hCD45+ cells)): 37.61% and 35.31% and 38.58% and 39.61% and 31.81% and 41.02% and 35.79%
[2]; Treatment day 58, 3.3 mg/kg Compound A, Table 2B, each value one animal, 3.3 mg/kg
  AML cell differentiation (% hCD33 + hCD11b+ (of hCD45+ cells)): 42.9% and 44.03% and 33.47% and 48.08% and 47.13% and 40.2% and 26.62%
[2]; Treatment day 61, 3.3 mg/kg Compound A, each value one animal, 3.3 mg/kg
  AML cell differentiation (% hCD33 + hCD11b+ (of hCD45+ cells)): 37.61% and 40.23% and 40.06% and 33.82% and 32.55% and 43.95% and 44%
[2]; Treatment day 75, 3.3 mg/kg Compound A, each value one animal, 3.3 mg/kg
  AML cell differentiation (% hCD33 + hCD11b+ (of hCD45+ cells)): 33.98% and 35.9% and 31.38% and 37.53% and 34.66% and 51.92%
[2]; Treatment day 77, 3.3 mg/kg Compound A, Table 2B, each value one animal, 3.3 mg/kg
  AML cell differentiation (% hCD33 + hCD11b+ (of hCD45+ cells)): 56.29% and 46.83% and 42.98% and 48.3% and 51.69% and 48.56%
[2]; Treatment day 89, 3.3 mg/kg Compound A, each value one animal, 3.3 mg/kg
  AML cell differentiation (% hCD33 + hCD11b+ (of hCD45+ cells)): 21.32% and 43.96% and 40.34% and 28.57% and 37.17% and 45.68%
[2]; Treatment day 98, 3.3 mg/kg Compound A, Table 2B, each value one animal, 3.3 mg/kg
  AML cell differentiation (% hCD33 + hCD11b+ (of hCD45+ cells)): 44.09% and 47.66% and 33.67% and 36.45% and 33.6%
[2]; Treatment day −3, 3.3 mg/kg Compound A, each value one animal, 3.3 mg/kg
  AML cell differentiation (% hCD33 + hCD11b+ (of hCD45+ cells)): 11.93% and 12% and 13.59% and 13.22% and 11.07% and 13.07%
[2]; Treatment day −19, 3.3 mg/kg Compound A, Table 2B, each value one animal, 3.3 mg/kg
  AML cell differentiation (% hCD33 + hCD11b+ (of hCD45+ cells)): 1.45% and 2.19% and 0.38% and 2.21% and 0.64% and 0.34% and 0.68%
[2]; day 43, group B: Compound A (3.3 mg/kg), azacitidine study, vehicle 15%
  % AML cell differentiation (treatment group value): 37%
[2]; day 47, group B: Compound A (3.3 mg/kg), cytarabine study, vehicle 10%
  % AML cell differentiation (treatment group value): 37%
[2]; day 50, group B: 1 mg Compound A, vehicle 28%
  % AML cell differentiation (treatment group value): 43%
[2]; day 50, group C: 10 mg Compound A, vehicle 28%
  % AML cell differentiation (treatment group value): 79%
2-HG production; [3]
  % Inhibition of 2-HG (plasma): 92.715% and 97.316% and 100.207% and 99.855% and 92.797% and 94.779%
  Naive Subtracted 2-HG (plasma): 0.134 µM and 0.809 µM and 0.298 µM and -0.023 µM and 0.016 µM and 0.799 µM and 0.579 µM
  Plasma 2-HG: 1.042 µM and 1.717 µM and 1.206 µM and 0.885 µM and 0.924 µM and 1.708 µM and 1.488 µM
2-HG production; [4]
  % Inhibition of 2-HG (plasma): 118.011% and 98.032% and 112.937% and 127.909% and 122.77% and 118.689% and 111.758%
  Naive Subtracted 2-HG (plasma): -1.236 µM and 0.135 µM and -0.888 µM and -1.915 µM and -1.562 µM and -1.282 µM and -0.807 µM
  Plasma 2-HG: 1.701 µM and 3.072 µM and 2.049 µM and 1.022 µM and 1.374 µM and 1.654 µM and 2.13 µM
2-HG production; NSG mice, plasma, C: 10 mg/kg Compound A, one line per animal
  inhibition at 10 mg/kg: 84%
2-HG production; NSG mice, po, 3.3 mg/kg Compound A, QD, Table 1D, each line one animal
  inhibition at 3.3 mg/kg: 98.8%
2-HG production; NSG mice, po, plasma, B: 1 mg/kg Compound A, QD, PO, one line per animal
  inhibition at 1 mg/kg: 54.7%
2-HG production; group B: 1 mg Compound A
  % plasma 2-HG (treatment group value): 38%
2-HG production; group B: Compound A (3.3 mg/kg), azacitidine study
  % plasma 2-HG (treatment group value): −15%
2-HG production; group B: Compound A (3.3 mg/kg), cytarabine study
  % plasma 2-HG (treatment group value): 3.4%
2-HG production; group C: 10 mg Compound A
  % plasma 2-HG (treatment group value): 9.2%
2-HG production; [5]
  2-HG: 9.264 µM and 6.489 µM and 7.318 µM and 8.683 µM and 8.938 µM
  % Inhibition of 2-HG: 73.015% and 67.532% and 58.504% and 56.818%
  Naive Subtracted 2-HG: 6.855 µM and 4.08 µM and 4.909 µM and 6.274 µM and 6.529 µM
2-HG production; [6]
  2-HG: 4.821 µM and 4.395 µM and 4.286 µM and 3.033 µM and 2.863 µM
  % Inhibition of 2-HG: 86.867% and 87.584% and 95.874% and 97%
  Naive Subtracted 2-HG: 2.412 µM and 1.986 µM and 1.877 µM and 0.624 µM and 0.454 µM
